Measurements published in patent publication USRE49850E1, “N-(pyridin-2-yl)-4-(thiazol-5-yl)pyrimidin-2-amine derivatives as therapeutic compounds” (AUCENTRA THERAPEUTICS PTY LTD, priority 2015, dated 2024).

What was measured:
[1] = target: T1, CDK9T1 (Homo sapiens, UniProt P50750); experiment: Kinase assay CDK9/T1 (radiometric or ADP Glo); type: biochemical; conditions: apparent Ki calculated from Km (ATP) and IC50; read-out: CDK inhibition Ki CDK9T1
T1 construct: purchased Eurofins Pharma Discovery or Reaction Biology Corporation (service)
T1 sequence (P50750 whole entry): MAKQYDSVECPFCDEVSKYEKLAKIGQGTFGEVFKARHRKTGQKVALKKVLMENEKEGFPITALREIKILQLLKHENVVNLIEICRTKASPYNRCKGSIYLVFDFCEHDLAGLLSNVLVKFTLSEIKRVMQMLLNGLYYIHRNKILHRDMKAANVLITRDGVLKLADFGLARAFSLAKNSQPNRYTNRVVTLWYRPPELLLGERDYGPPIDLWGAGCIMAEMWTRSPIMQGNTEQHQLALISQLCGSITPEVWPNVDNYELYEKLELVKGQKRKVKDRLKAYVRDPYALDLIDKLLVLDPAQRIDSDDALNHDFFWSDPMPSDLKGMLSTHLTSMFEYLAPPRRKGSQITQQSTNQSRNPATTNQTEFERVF
T1 sequence (O60563 whole entry partner): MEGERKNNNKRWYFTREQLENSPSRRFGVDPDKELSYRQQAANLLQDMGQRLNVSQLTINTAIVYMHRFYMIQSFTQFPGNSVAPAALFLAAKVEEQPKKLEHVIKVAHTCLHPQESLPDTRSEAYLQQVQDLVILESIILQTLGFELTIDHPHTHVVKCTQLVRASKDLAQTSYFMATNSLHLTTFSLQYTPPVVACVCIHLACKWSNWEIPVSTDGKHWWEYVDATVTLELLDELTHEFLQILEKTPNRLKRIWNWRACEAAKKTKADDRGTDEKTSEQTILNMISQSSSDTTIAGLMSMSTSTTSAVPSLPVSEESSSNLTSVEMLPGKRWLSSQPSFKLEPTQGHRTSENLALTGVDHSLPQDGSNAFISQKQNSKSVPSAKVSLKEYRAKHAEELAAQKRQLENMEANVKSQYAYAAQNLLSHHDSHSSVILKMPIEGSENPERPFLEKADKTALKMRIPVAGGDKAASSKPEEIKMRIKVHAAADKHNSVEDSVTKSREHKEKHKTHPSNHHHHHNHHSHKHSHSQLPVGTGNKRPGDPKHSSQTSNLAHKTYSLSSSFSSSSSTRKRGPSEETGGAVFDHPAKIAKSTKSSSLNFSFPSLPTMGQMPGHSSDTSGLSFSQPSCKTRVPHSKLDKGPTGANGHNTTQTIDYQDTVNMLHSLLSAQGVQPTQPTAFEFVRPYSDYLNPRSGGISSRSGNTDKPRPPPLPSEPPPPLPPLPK
In short: (§1)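 Radiometric inhibition data for CDKs came from Eurofins or Reaction Biology profiling services; CDK4/D1 was also run in-house by ADP-Glo in […] pH 7.5, 20 mM MgCl2, 0.4 mM DTT, 0.1 mg/ml BSA with RB-CTF substrate, 40 min at 37 °C after ATP start. Ten-point 1:3 dilutions (10 μM–0.5 nM); four-parameter IC50, Ki from IC50 and ATP Km.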

[2] = target: CDK 2A (Homo sapiens, UniProt P24941); experiment: Kinase assay CDK2A (radiometric profiling service); type: biochemical; conditions: for Ki: apparent Ki calculated from Km (ATP) and IC50, read-out: CDK inhibition Ki CDK 2A
In short: (§2)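 CDK7, CDK2 and CDK1 inhibition was measured by an external radiometric profiling service; CDK4/D1 by radiometric or in-house ADP-Glo assay with RB-CTF substrate in […] pH 7.5, 20 mM MgCl2, 0.4 mM DTT, 0.1 mg/ml BSA, for 40 min at 37° C. IC50 came from four-parameter fits; Ki from IC50 and Km (ATP).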

[3] = test system: MV4-11; experiment: Cell viability assay (resazurin, leukemia cell line) MV4-11; type: cell-based, human; conditions: Homo sapiens, MV4-11, 72 h; read-out: Anti-proliferative activity GI50 MV4-11
Text: (§3) Compounds from Example 1 were subjected to a standard MTT (3-(4,5-dimethylthiazol-2-yl)-2,5-diphenyltetrazolium bromide) and resazurin assays on solid tumour cell lines and leukemia cell lines, respectively, as previously reported (Wang S et al., J Med Chem 47:1662-1675, 2004 and Diab S. et al. CheMedChem 9:962-972, 2014).

[4] = target: T2, CDK6D3 (Homo sapiens, UniProt Q00534); experiment: Kinase assay CDK6/D3 (radiometric or ADP Glo); type: biochemical; conditions: apparent Ki calculated from Km (ATP) and IC50; read-out: CDK inhibition Ki CDK6D3
T2 construct: purchased Eurofins Pharma Discovery or Reaction Biology Corporation (service)
T2 sequence (Q00534 whole entry): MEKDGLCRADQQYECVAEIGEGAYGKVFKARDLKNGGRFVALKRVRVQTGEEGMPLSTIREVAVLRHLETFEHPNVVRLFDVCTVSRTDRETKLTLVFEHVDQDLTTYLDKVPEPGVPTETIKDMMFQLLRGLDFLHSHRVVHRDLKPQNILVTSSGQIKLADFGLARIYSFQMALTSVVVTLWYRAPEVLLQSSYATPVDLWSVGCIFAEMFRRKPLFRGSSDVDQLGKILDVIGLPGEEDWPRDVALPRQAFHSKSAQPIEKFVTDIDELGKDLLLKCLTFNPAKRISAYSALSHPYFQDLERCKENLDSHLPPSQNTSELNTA
T2 sequence (P30281 whole entry partner): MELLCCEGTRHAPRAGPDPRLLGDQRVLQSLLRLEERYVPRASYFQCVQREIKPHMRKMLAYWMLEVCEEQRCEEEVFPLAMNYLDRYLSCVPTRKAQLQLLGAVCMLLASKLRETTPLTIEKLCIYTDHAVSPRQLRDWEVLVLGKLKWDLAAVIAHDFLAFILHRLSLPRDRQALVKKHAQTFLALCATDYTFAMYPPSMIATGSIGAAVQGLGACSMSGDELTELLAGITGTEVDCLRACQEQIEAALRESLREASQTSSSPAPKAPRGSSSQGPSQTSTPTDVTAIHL
In short: as §1

[5] = target: CDK7H (Homo sapiens, UniProt P50613); experiment: Kinase assay CDK7H (radiometric profiling service); type: biochemical; conditions: for Ki: apparent Ki calculated from Km (ATP) and IC50, read-out: CDK inhibition Ki CDK7H
Sequence of CDK7H (P50613 whole entry): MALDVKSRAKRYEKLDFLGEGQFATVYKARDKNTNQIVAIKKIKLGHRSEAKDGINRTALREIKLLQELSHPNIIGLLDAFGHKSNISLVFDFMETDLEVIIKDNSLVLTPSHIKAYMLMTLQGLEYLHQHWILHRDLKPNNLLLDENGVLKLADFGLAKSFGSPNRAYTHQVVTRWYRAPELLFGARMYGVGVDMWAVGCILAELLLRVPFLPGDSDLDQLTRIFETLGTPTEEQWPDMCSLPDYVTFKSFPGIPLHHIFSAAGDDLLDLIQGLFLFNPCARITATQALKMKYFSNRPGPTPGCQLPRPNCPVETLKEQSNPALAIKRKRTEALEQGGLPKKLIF
Sequence of CDK7H (P51946 whole entry partner): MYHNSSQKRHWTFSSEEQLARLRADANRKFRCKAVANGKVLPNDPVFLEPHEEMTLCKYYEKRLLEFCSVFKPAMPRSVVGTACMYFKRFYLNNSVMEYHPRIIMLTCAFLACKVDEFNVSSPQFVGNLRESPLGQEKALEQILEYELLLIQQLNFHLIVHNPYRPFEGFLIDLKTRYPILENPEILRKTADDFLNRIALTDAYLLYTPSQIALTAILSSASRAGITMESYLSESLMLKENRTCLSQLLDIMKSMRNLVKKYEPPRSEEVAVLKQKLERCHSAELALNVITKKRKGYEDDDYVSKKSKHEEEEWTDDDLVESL
Sequence of CDK7H (P51948 whole entry partner): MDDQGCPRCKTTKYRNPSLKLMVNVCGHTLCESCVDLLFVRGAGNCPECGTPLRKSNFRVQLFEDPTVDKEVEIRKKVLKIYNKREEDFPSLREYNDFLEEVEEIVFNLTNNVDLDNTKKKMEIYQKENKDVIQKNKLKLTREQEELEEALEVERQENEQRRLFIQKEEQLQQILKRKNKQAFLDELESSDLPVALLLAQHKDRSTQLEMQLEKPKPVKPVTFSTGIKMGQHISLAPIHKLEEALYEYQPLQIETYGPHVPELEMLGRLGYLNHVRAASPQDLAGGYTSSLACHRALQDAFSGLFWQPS
In short: as §2

[6] = test system: MOLM-13; experiment: Cell viability assay, leukemia MOLM-13; type: cell-based; conditions: Homo sapiens, 72 h, read-out: Antiproliferative activity GI50 MOLM-13
Text: as §3

[7] = target: T3, CDK4D1 (Homo sapiens, UniProt P11802); experiment: Kinase assay CDK4/D1 (radiometric or ADP Glo); type: biochemical; conditions: apparent Ki calculated from Km (ATP) and IC50; read-out: CDK inhibition Ki CDK4D1
T3 construct: purchased Eurofins Pharma Discovery or Reaction Biology Corporation (service)
T3 sequence (P11802 whole entry): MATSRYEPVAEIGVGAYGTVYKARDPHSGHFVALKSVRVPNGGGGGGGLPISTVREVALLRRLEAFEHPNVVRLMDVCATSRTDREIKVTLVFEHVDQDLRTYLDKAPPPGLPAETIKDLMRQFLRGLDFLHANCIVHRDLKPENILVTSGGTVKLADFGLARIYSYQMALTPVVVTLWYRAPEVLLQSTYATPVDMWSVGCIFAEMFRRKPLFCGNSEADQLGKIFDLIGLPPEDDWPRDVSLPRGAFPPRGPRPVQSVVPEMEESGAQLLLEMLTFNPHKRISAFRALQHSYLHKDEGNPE
T3 sequence (P24385 whole entry partner): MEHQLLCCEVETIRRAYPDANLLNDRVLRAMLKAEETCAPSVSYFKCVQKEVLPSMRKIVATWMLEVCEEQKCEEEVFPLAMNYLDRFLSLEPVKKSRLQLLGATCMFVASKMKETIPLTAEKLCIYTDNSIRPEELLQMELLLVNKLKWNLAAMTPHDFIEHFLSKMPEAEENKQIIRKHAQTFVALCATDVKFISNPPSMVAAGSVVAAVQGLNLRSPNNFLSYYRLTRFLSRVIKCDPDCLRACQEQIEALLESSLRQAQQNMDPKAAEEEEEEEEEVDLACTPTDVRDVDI
In short: as §2

[8] = test system: MDA-MB-453; experiment: Cell viability assay (MTT, solid tumour cell line) MDA-MB-453; type: cell-based, human; conditions: Homo sapiens, MDA-MB-453, 72 h; read-out: Anti-proliferative activity GI50 MDA-MB-453
Text: as §3

[9] = test system: KG-1; experiment: Cell viability assay, leukemia KG-1; type: cell-based; conditions: Homo sapiens, 72 h, read-out: Antiproliferative activity GI50 KG-1
Text: as §3

[10] = target: CDK1B (Homo sapiens, UniProt P06493); experiment: Kinase assay CDK1B (radiometric profiling service); type: biochemical; conditions: for Ki: apparent Ki calculated from Km (ATP) and IC50, read-out: CDK inhibition Ki CDK1B
Sequence of CDK1B (P06493 whole entry): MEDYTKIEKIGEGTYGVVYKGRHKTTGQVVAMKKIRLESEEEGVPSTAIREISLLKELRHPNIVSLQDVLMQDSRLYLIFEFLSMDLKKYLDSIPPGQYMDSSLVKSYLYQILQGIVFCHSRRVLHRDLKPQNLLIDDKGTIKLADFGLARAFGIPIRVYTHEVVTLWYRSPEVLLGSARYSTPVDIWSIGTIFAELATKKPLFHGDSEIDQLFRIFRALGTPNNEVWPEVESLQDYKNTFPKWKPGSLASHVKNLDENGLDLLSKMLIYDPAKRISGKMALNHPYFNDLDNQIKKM
Sequence of CDK1B (P14635 whole entry partner): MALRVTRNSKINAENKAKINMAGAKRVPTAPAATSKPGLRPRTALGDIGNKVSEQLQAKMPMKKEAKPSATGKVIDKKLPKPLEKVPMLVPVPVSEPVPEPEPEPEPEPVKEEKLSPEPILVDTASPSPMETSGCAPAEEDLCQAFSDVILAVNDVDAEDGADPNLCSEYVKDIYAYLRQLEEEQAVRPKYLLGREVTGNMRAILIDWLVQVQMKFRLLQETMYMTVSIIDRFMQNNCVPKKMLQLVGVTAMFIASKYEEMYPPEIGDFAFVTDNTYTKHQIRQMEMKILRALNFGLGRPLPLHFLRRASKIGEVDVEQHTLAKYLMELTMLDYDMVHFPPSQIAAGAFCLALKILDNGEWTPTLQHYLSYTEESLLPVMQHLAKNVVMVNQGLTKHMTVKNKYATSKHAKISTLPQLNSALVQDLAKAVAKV
In short: as §2

[11] = Pharmacokinetics in rat; type: in vivo, Wistar Rat; conditions: po; for bioavailability: vs IV dosing, read-out: Oral bioavailability (F %)
Method: (§4) For pharmacokinetic measurements, healthy male adult Balb/C mice (weighing 20-25 g) or Wistar Rat (weighing 250-350 g) were split into weight matched groups of 3 per group. […] Blood samples were collected from animals by jugular vein cannula (rats) or under anaesthesia by cardiac puncture (mice) at time zero and at intervals up to 24 h. Harvested blood was centrifuged at 7000×G for 2 minutes, and the plasma aspirated and frozen at −20° C. until analysis. Quantitative analysis of compound in plasma was carried out using LC-MS/MS methods. Pharmacokinetic data derived using Phoenix WinNonlin 6.4® non-compartmental analysis. Oral bioavailability (% F) was calculated by taking the ratio of dose-normalised AUC values from oral versus parenteral (IV) dosing.

[12] = test system: A2780; experiment: Cell viability assay, ovarian A2780; type: cell-based; conditions: Homo sapiens, A2780; 72 h, Ovarian; read-out: Antiproliferative activity GI50 A2780
Text: as §3

[13] = test system: D458; experiment: Cell viability assay, medulloblastoma D458; type: cell-based; conditions: Homo sapiens; 72 h, Medulloblastoma; read-out: Antiproliferative activity GI50 D458
Text: as §3

[14] = test system: D283; experiment: Cell viability assay, medulloblastoma D283; type: cell-based; conditions: Homo sapiens, D283; 72 h, Medulloblastoma; read-out: Antiproliferative activity GI50 D283
Text: as §3

[15] = test system: MV4-11 cells; experiment: Cell cycle analysis (PI staining, flow cytometry); type: cell-based, human; conditions: MV4-11 cells treated for 24 h, FIG. 1
Method: Cell cycle analysis and apoptosis studies were performed as described previously (Diab S. et al. CheMedChem 9:962-972, 2014; Teo T., et al. Cancer Letters, 357(2):612-623, 2015). Briefly, human acute myeloid leukaemia MV4-11 cells (1×10^5) were seeded and incubated overnight at 37° C. and 5% CO2. Cells were centrifuged at 300×g for 5 min upon treatment with inhibitor. Cell pellets were collected and fixed with 70% ethanol on ice for 15 min, followed by centrifugation at 300×g for 5 min. The collected pellets were incubated with staining solution (50 μg/mL PI, 0.1 mg/mL ribonuclease A, 0.05% Triton X-100) at 37° C. for an hour and analysed with Gallios flow cytometer. 1×10^5 of the remaining cells were then used in an apoptotic assay with Annexin V-FITC Apoptosis Detection Kit. The samples were analysed by FACS within one hour of staining. Data were analysed using Kaluza v1.2.
In an example shown in FIG. 1, MV4-11 cells were treated with compound 60 for 24 hat the concentrations shown.

[16] = Pharmacokinetics in mice; type: in vivo, Balb/C mice; conditions: po, 10 mg/kg in mice
Method: as §4

[17] = male, Wistar, plasma, 20 mg/kg in rat
[18] = male, Wistar, plasma, 40 mg/kg in rat

Row | Structure (SMILES) | Ki [1] [nM] | Ki [2] [nM] | GI50 [3] [nM] | Ki [4] [nM] | Ki [5] [nM] | GI50 [6] [nM] | Ki [7] [nM] | GI50 [8] [nM] | GI50 [9] [nM] | Ki [10] [nM] | other results
1 | CNc1nc(C)c(-c2nc(Nc3ccc(N4CCN(C(C)=O)CC4)cn3)ncc2C#N)s1 [Compound 34, 2-((5-(4-acetylpiperazin-1-yl)pyridin-2-yl)amino)-4-(4-methyl-2-(methylamino)thiazol-5-yl)pyrimidine-5-carbonitrile] | > 5000 | 4470 | 174 ± 22 |  | > 5000 | 408 ± 25 |  | 813 ± 22 | 112 ± 45 | > 5000 | AUC [11, 17]: 10.2 µM·h; Cmax [11, 17]: 600 nM; half-life [11, 17]: 4.6 h; bioavailability [11, 17]: 39%
2 | Cc1nc(N(C)C)sc1-c1nc(Nc2ccc(N3CCN(C)CC3)cn2)ncc1F [Compound 46, 5-(5-fluoro-2-((5-(4-methylpiperazin-1-yl)pyridin-2-yl)amino)pyrimidin-4-yl)-N,N,4-trimethylthiazol-2-amine] | 4360 | 1390 | 73 ± 10 | 55 | > 5000 | 98 ± 12 | 2 | 638 ± 42 | 5 ± 4 | > 5000 | 
3 | CNc1nc(C)c(-c2nc(Nc3ccc(N4CCC(N(C)C)CC4)cn3)ncc2F)s1 [Compound 47, 5-(2-((5-(4-(dimethylamino)piperidin-1-yl)pyridin-2-yl)amino)-5-fluoropyrimidin-4-yl)-N,4-dimethylthiazol-2-amine] | > 5000 | 3340 | 107 ± 22 | 279 | > 5000 | 76 ± 8 | 2 | 349 ± 36 | 6 ± 1 | > 5000 | 
4 | Cc1nc(NC2CCCC2)sc1-c1ccnc(Nc2ccc(N3CCNCC3)cn2)n1 [Compound 60, N-cyclopentyl-4-methyl-5-(2-((5-(piperazin-1-yl)pyridin-2-yl)amino)pyrimidin-4-yl)thiazol-2-amine] |  | > 5000 | 23 ± 24 |  |  |  |  | 70 ± 13 |  | > 5000 | AUC [11, 18]: 6.6 µM·h; Cmax [11, 18]: 500 nM; half-life [11, 18]: 16.4 h; bioavailability [11, 18]: 51%; GI50 [12]: 81 ± 1 nM; GI50 [13]: 321 ± 68 nM; GI50 [14]: 124 ± 20 nM; Cell cycle effect [15]: arrested cells in the G1 phase of the cell-cycle in a dose-dependent manner

Continued, in another order:

Row | Ki [1] [nM] | Ki [2] [nM] | GI50 [3] [nM] | Ki [4] [nM] | Ki [5] [nM] | GI50 [6] [nM] | Ki [7] [nM] | GI50 [8] [nM] | GI50 [9] [nM] | Ki [10] [nM] | Structure (SMILES) | other results
5 | > 5000 | 1800 | 591 ± 83 | 1670 | > 5000 | 293 ± 28 | 10 | 3320 ± 576 | 47 ± 15 | > 5000 | CCc1nc(C)c(-c2ccnc(Nc3ccc(N4CCN(CC)CC4)cn3)n2)s1 [Compound 9, 4-(2-ethyl-4-methylthiazol-5-yl)-N-(5-(4-ethylpiperazin-1-yl)pyridin-2-yl)pyrimidin-2-amine] | 
6 | > 5000 | 2940 | 335 ± 184 | 29 | > 5000 |  | 5 | 3680 ± 285 |  | > 5000 | Cc1nc(NC2CCCC2)sc1-c1ccnc(Nc2ccc(N3CCOCC3)cn2)n1 [Compound 71, N-cyclopentyl-4-methyl-5-(2-((5-morpholinopyridin-2-yl)amino)pyrimidin-4-yl)thiazol-2-amine] | AUC [11, 17]: 15.9 µM·h; bioavailability [11, 17]: 27%; Cmax ([11]; 20 mg/kg in rat): 1400 nM; t1/2 ([11]; 20 mg/kg in rat): 2.8 h; AUC ([16]; male, Balb/C, mouse, plasma): 5.9 µM·h; half-life ([16]; male, Balb/C, mouse, plasma): 5 h; bioavailability ([16]; male, Balb/C, mouse, plasma, vs IV dosing, read-out: Oral bioavailability (F %)): 100%; Cmax [16]: 1600 nM
7 | 1800 | 476 | 20 ± 15 | 10 | > 5000 |  | 2 | 3360 ± 286 |  | > 5000 | Cc1nc(N(C)C2CCCC2)sc1-c1ccnc(Nc2ccc(N3CCN(C)CC3)cn2)n1 [Compound 86, N-cyclopentyl-N,4-dimethyl-5-(2-((5-(4-methylpiperazin-1-yl)pyridin-2-yl)amino)pyrimidin-4-yl)thiazol-2-amine] | GI50 [12]: 72 ± 20 nM; GI50 [13]: 617 ± 112 nM; GI50 [14]: 358 ± 100 nM
8 | 950 |  | 752 ± 33 | 155 |  |  | 27 | 3330 ± 864 |  |  | Cc1[nH]c(=O)sc1-c1ccnc(Nc2ccc(N3CCN(C)CC3)cn2)n1 [Compound 92, 4-methyl-5-(2-((5-(4-methylpiperazin-1-yl)pyridin-2-yl)amino)pyrimidin-4-yl)thiazol-2(3H)-one] | remaining activity at 10 µM ([2]; compound at 10 μM, read-out: % remaining enzymatic activity at 10 μM CDK 2A): 61%; remaining activity at 10 µM ([5]; compound at 10 μM, read-out: % remaining enzymatic activity at 10 μM CDK7H): 24%; melting point: 228 to 230 °C; remaining activity at 10 µM ([10]; compound at 10 μM, read-out: % remaining enzymatic activity at 10 μM CDK1B): 51%
